# Results taken from patent US4962224A, “N-naphthoylglycines as aldose reductase inhibitors” (American Home Products Corporation, priority 1989, dated 1990).
# “And” between values parts separate entries of the source, which are not always exact repeats. Identical values can stand only once. Like-named read-outs stand apart in the source and are kept apart here.
# Assays:
# aldose reductase = biological target: T1, aldose reductase (Bos taurus, UniProt P16116); experiment: aldose reductase inhibiting effects in vitro (Table I, IN VITRO); assay type: biochemical, bovine (lens); conditions: for inhibition at 0.04 µM / inhibition at 0.1 µM / inhibition at 1 µM / inhibition at 10 µM: read-out: % Inhibition IN VITRO
# T1 construct: preparation of the enzyme from bovine lens; from tissue; host or cells: bovine lens
# Text: In the present case the procedure of Hayman and Kinoshita was modified in that the final chromatography step was omitted in the preparation of the enzyme from bovine lens. The results are tabulated in Table I under the heading IN VITRO.
# dulcitol accumulation = experiment: lowering of dulcitol (galactitol) accumulation in tissues of galactosemic rats (Table I, IN VIVO); parameters: species or system rat (Sprague-Dawley); conditions: galactosemic rats, 4 days; for % Lowering dulcitol accumulation IN VIVO, D: diaphragm; for % Lowering dulcitol accumulation IN VIVO, L: lens
# Text: Such experiments are exemplified hereinbelow after the listing of the following general comments pertaining to these experiments:
# (a) Four or more groups of six male rats, […], Sprague-Dawley strain, were used. The first group, the control group, was fed a mixture of laboratory chow (rodent Laboratory Chow, Purina) and […] at 20% (w/w %) concentration. […] The test compound was either admixed to the diet or administered by gavage. In experiments involving compound administration in the diet, the average dose administered was calculated from the actual food intake of the animals in each group. The concentration of galactose in the diet of the treated groups was the same as that for the untreated galactosemic group.
# (b) After four days, the animals were killed by decapitation. The eyeballs were removed and punctured with a razor blade; the freed lenses were rolled gently on filter paper and weighed. The sciatic nerves were dissected as completely as possible and weighed. Both tissues when frozen can be kept up to two weeks before being analyzed for galactitol.
# Only two minor reagent changes were made: (a) the rinsing mixture was an aqueous 5% (w/v) trichloroacetic acid solution and (b) the stock solution was prepared by dissolving 25 mg of dulcitol in 100 mL of an aqueous trichloroacetic acid solution. [N.B.: For each experiment the average value found in the tissue from rats fed the glucose diet was subtracted from the individual values found in the corresponding tissue in galactose-fed rats to obtain the amount of polyol accumulated.]
# The figures under L, N, and D represent the percentage decrease of galactitol accumulation in the tissues of the lens, sciatic nerve, and diaphragm, respectively, for treated rats as compared to untreated rats.
inhibition at 10 µM (aldose reductase; 10^-5 M),SMILES,inhibition at 0.04 µM (aldose reductase; 4 × 10^-8 M),inhibition at 0.1 µM (aldose reductase; 10^-7 M),inhibition at 10 µM (aldose reductase),inhibition at 1 µM (aldose reductase; 10^-6 M),other results
–,COc1ccc2c(C(=S)N(C)CC(=O)O)c(OCc3ccccc3)ccc2c1C(F)(F)F,45%,84%,96%,–,inhibition at 1 µM (aldose reductase): 96%
90%,"COc1ccc2c(C(=O)N(C)CC(=O)O)c(Cl)ccc2c1C(F)(F)F [Cl O OH, N-[[2-Chloro-6-methoxy-5-(trifluoromethyl)-1-naphthalenyl]carbonyl]-N-methylglycine]",36%,63%,–,87%,–
9%,"COc1ccc2c(C(=O)N(C)CC(N)=O)c(Cl)ccc2c1C(F)(F)F [Example 2, [[[2-Chloro-6-methoxy-5-(trifluoromethyl)-1-naphthalenyl]carbonyl]methylamino]acetamide]",–,–,–,0%,"% Lowering dulcitol accumulation IN VIVO, D (dulcitol accumulation; 24 mg/kg): 53%; % Lowering dulcitol accumulation IN VIVO, L (dulcitol accumulation; 24 mg/kg): N.S."
–,"COc1ccc2c(C(=O)N(C)CC(=O)O)c(OCC(F)(F)F)ccc2c1C(F)(F)F [Example 3, N-[[6-Methoxy-2-(2,2,2-trifluoroethoxy)-5-(trifluoromethyl)-1-naphthalenyl]carbonyl]-N-methylglycine]",32%,67%,96%,91%,–
–,"CCOc1ccc2c(C(F)(F)F)c(OC)ccc2c1C(=S)N(C)CC(=O)O [Example 4, N-[[2-Ethoxy-6-methoxy-5-(trifluoromethyl)-1-naphthalenyl]thioxomethyl]-N-methylglycine]",50%,87%,98%,95%,"% Lowering dulcitol accumulation IN VIVO, D (dulcitol accumulation; 28 mg/kg): 85%; % Lowering dulcitol accumulation IN VIVO, L (dulcitol accumulation; 28 mg/kg): N.S."
–,"COc1ccc2c(C(=S)N(C)CC(=O)O)c(OCC(F)(F)F)ccc2c1C(F)(F)F [Example 5, N-[[6-Methoxy-2-(2,2,2-trifluoroethoxy)-5-(trifluoromethyl)-1-naphthalenyl]thioxomethyl]-N-methylglycine]",49%,87%,99%,95%,"% Lowering dulcitol accumulation IN VIVO, D (dulcitol accumulation; 26 mg/kg): 88%; % Lowering dulcitol accumulation IN VIVO, L (dulcitol accumulation; 26 mg/kg): N.S."
–,"CCCOc1ccc2c(C(F)(F)F)c(OC)ccc2c1C(=O)N(C)CC(=O)O [Example 7, N-[[6-Methoxy-2-propoxy-5-(trifluoromethyl)-1-naphthalenyl]carbonyl]-N-methylglycine]",21%,–,–,–,"inhibition at 0.1 µM (aldose reductase): 46%; % Lowering dulcitol accumulation IN VIVO, D (dulcitol accumulation; 50 mg/kg): 57%; % Lowering dulcitol accumulation IN VIVO, L (dulcitol accumulation; 50 mg/kg): N.S."
–,"COc1ccc2c(C(=O)N(C)CC(=O)O)c(Oc3ccccc3)ccc2c1C(F)(F)F [Example 8, N-[[6-Methoxy-2-phenoxy-5-(trifluoromethyl)-1-naphthalenyl]carbonyl]-N-methylglycine]",50%,83%,93%,–,"inhibition at 1 µM (aldose reductase): 93%; % Lowering dulcitol accumulation IN VIVO, D (dulcitol accumulation; 48 mg/kg): 67%; % Lowering dulcitol accumulation IN VIVO, L (dulcitol accumulation; 48 mg/kg): N.S."
95%,"COc1ccc2c(C(=O)N(C)CC(=O)O)c(Br)ccc2c1C(F)(F)F [Example 9, N-[[2-Bromo-6-methoxy-5-(trifluoromethyl)-1-naphthalenyl]carbonyl]-N-methylglycine]",–,63%,–,90%,"% Lowering dulcitol accumulation IN VIVO, D (dulcitol accumulation; 97 mg/kg): 84%; % Lowering dulcitol accumulation IN VIVO, L (dulcitol accumulation; 97 mg/kg): 8%"
8%,"CCOC(=O)NC(=O)CN(C)C(=O)c1c(F)ccc2c(C(F)(F)F)c(OC)ccc12 [F O NHCO2 C2 H5, N-[2-[(Ethoxycarbonyl)amino]-2-oxoethyl]-2-fluoro-6-methoxy-N-methyl-5-(trifluoromethyl)-1-naphthalenecarboxamide]",–,–,–,2%,"% Lowering dulcitol accumulation IN VIVO, D (dulcitol accumulation; 22 mg/kg): 55%; % Lowering dulcitol accumulation IN VIVO, L (dulcitol accumulation; 22 mg/kg): N.S."
–,"COc1ccc2c(C(=O)N(C)CC(=O)O)c(F)ccc2c1C(F)(F)F [F O OH, N-[[2-Fluoro-6-methoxy-5-(trifluoromethyl)-1-naphthalenyl]carbonyl]-N-methylglycine]",49%,80%,94%,–,"inhibition at 1 µM (aldose reductase): 93%; % Lowering dulcitol accumulation IN VIVO, L (dulcitol accumulation; 52 mg/kg): 15%; % Lowering dulcitol accumulation IN VIVO, L (dulcitol accumulation; 100 mg/kg): 17%"
2%,"COc1ccc2c(C(=S)N(C)CC(N)=O)c(F)ccc2c1C(F)(F)F [F S NH2, [[[2-Fluoro-6-methoxy-5-(trifluoromethyl)-1-naphthalenyl]thioxomethyl]methylamino]acetamide]",–,–,–,6%,–
–,"COc1ccc2c(C(=S)N(C)CC(=O)O)c(F)ccc2c1C(F)(F)F [F S OH, N-[[2-Fluoro-6-methoxy-5-(trifluoromethyl)-1-naphthalenyl]thioxomethyl]-N-methylglycine]",45%,–,99%,–,"inhibition at 1 µM (aldose reductase): 94%; % Lowering dulcitol accumulation IN VIVO, D (dulcitol accumulation; 4.8 mg/kg): 86%; % Lowering dulcitol accumulation IN VIVO, D (dulcitol accumulation; 25 mg/kg): 93%; % Lowering dulcitol accumulation IN VIVO, L (dulcitol accumulation; 4.8 mg/kg): N.S.; % Lowering dulcitol accumulation IN VIVO, L (dulcitol accumulation; 25 mg/kg): 23%"
8%,COc1ccc2c(C(=O)N(C)CC(N)=O)c(OCC(F)(F)F)ccc2c1C(F)(F)F [OCH2 CF3 O NH2],–,–,–,1%,"% Lowering dulcitol accumulation IN VIVO, D (dulcitol accumulation; 24 mg/kg): N.S.; % Lowering dulcitol accumulation IN VIVO, L (dulcitol accumulation; 24 mg/kg): N.S."

SMILES,inhibition at 10 µM (aldose reductase; 10^-5 M),inhibition at 0.04 µM (aldose reductase; 4 × 10^-8 M),inhibition at 0.1 µM (aldose reductase; 10^-7 M),inhibition at 10 µM (aldose reductase),inhibition at 1 µM (aldose reductase; 10^-6 M),other results
"CCOc1ccc2c(C(F)(F)F)c(OC)ccc2c1C(=O)N(C)CC(=O)O [Example 6, N-[[2-Ethoxy-6-methoxy-5-(trifluoromethyl)-1-naphthalenyl]carbonyl]-N-methylglycine]",89%,33%,–,–,89%,"inhibition at 0.1 µM (aldose reductase): 65%; % Lowering dulcitol accumulation IN VIVO, D (dulcitol accumulation; 49 mg/kg): 57%; % Lowering dulcitol accumulation IN VIVO, L (dulcitol accumulation; 49 mg/kg): N.S."
"COc1ccc2c(C(=S)N(C)CC(=O)O)c(Cl)ccc2c1C(F)(F)F [Example 10, N-[[2-Chloro-6-methoxy-5-(trifluoromethyl)-1-naphthalenyl]thioxomethyl]-N-methylglycine]",95%,51%,81%,–,91%,"% Lowering dulcitol accumulation IN VIVO, D (dulcitol accumulation; 24 mg/kg): 90%; % Lowering dulcitol accumulation IN VIVO, L (dulcitol accumulation; 24 mg/kg): N.S."
"CCCCOc1ccc2c(C(F)(F)F)c(OC)ccc2c1C(=O)N(C)CC(=O)O [Example 12, N-[[2-Butoxy-6-methoxy-5-(trifluoromethyl)-1-naphthalenyl]carbonyl]-N-methylglycine]",92%,25%,42%,–,88%,"% Lowering dulcitol accumulation IN VIVO, D (dulcitol accumulation; 49 mg/kg): 55%; % Lowering dulcitol accumulation IN VIVO, L (dulcitol accumulation; 49 mg/kg): N.S."
COc1ccc2c(C(F)(F)F)c(OC)ccc2c1C(=O)N(C)CC(=O)O [OCH3 O OH],95%,56%,–,99%,95%,"% Inhibition IN VITRO (aldose reductase; 10^-6 M): 92%; % Inhibition IN VITRO (aldose reductase; 10^-7 M): 91% and 62%; inhibition at 0.04 µM (aldose reductase): 38%; % Lowering dulcitol accumulation IN VIVO, D (dulcitol accumulation; 26 mg/kg): 71%; % Lowering dulcitol accumulation IN VIVO, D (dulcitol accumulation; 53 mg/kg): N.S.; % Lowering dulcitol accumulation IN VIVO, L (dulcitol accumulation; 26 mg/kg): N.S.; % Lowering dulcitol accumulation IN VIVO, L (dulcitol accumulation; 53 mg/kg): N.S."
